According to patent US11833156B2, “Heterocyclic compounds as pad inhibitors” (JUBILANT EPIPAD LLC, priority 2017, dated 2023):

Key:
PAD4 enzyme [1] = biological target: T1, PAD4 enzyme (Homo sapiens (Human), UniProt Q9UM07); assay: Ammonia Release Biochemical Assay (citrullination detected via ammonia release); details: PAD4 120 nM, substrate BAEE, 60-min preincubation, read-out: NH3 release
Outline: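 PAD4 (diluted to 120 nM) was preincubated 60 min at room temperature with compound (1% DMSO final) in HEPES pH 7.4 with DTT and BSA, then reacted 60 min with 1.5 mM BAEE in Ca2+-containing buffer. Ammonia released was detected after EDTA stop with o-phthalaldehyde/DTT (90 min, fluorescence ex 405/em 460 nm), giving IC50.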

PAD4 enzyme [2] = biological target: T1, PAD4 enzyme; assay: FP Binding Assay; details: for IC50: PAD4 1 uM, 10 nM fluorescein labelled probe JPAD-00085
Method: Binding of compounds with PAD4 enzyme was detected by FP assay. PAD4 enzyme was diluted to 1 uM in assay buffer (100 mM HEPES, 50 mM NaCl, 1 mM DTT, 5% Glycerol and 1 mM CHAPS) and added to wells containing various concentration of compounds or DMSO vehicle (1%) in a 384 well black plate. 10 nM of fluorescein labelled probe (JPAD-00085) was added to the plate. Assay plate was incubated for 60 minutes at room temperature before measuring FP reading at FP module (λex 485/λem 535 nm) on Pherastar. IC50 was calculated using XL-fit software model 205. (Ref: Nat Chem Biol. 2015 March; 11(3):189-91).

T1 sequence (Q9UM07 whole entry): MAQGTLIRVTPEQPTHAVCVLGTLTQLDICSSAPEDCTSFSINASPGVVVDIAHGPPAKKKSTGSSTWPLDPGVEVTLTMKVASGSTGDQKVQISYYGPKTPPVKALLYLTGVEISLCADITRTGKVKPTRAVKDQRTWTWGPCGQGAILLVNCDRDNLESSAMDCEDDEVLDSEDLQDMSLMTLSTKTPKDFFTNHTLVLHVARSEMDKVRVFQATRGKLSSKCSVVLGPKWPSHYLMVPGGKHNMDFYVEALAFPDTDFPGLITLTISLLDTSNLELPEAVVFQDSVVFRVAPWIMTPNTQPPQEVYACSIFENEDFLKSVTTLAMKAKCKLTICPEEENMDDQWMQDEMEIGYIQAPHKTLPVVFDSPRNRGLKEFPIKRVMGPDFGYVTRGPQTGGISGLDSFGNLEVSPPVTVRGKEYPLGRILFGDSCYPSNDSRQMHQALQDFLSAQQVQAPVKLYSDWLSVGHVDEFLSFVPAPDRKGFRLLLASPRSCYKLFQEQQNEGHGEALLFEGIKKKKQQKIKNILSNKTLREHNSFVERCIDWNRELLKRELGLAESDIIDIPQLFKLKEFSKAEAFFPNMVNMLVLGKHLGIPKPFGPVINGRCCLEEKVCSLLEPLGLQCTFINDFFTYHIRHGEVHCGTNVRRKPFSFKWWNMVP

SMILES | IC50 (PAD4 enzyme [1]) [nM] | IC50 (PAD4 enzyme [2]) [nM] | inhibition of PAD4 enzyme activity in FP Binding assay (PAD4 enzyme [2])
N[C@@H]1CCCN(C(=O)c2cc3c4c(c2)nc(-c2cc5ccccc5n2Cc2ccc(F)cc2)n4CCO3)C1 [Example 15, (R)-(3-aminopiperidin-1-yl)(2-(1-(4-fluorobenzyl)-1H-indol-2-yl)-3,4-dihydro-5-oxa-1,2a-diazaacenaphthylen-7-yl)methanone] | ≤ 1000 | 1000 to 10000 | –
N[C@@H]1CCCN(C(=O)c2cc3c4c(c2)nc(-c2cc5ccccc5n2Cc2ccccc2F)n4CCO3)C1 [Example 14, (R)-(3-aminopiperidin-1-yl)(2-(1-(2-fluorobenzyl)-1H-indol-2-yl)-3,4-dihydro-5-oxa-1,2a-diazaacenaphthylene-7-yl)methanone] | 1000 to 10000 | – | actively inhibiting PAD4 enzyme activity
N[C@@H]1CCCN(C(=O)c2cc3c4c(c2)nc(-c2cc5ccccc5n2Cc2cccnc2)n4CCO3)C1 [Example 16, (R)-(3-aminopiperidin-1-yl)(2-(1-(pyridin-3-ylmethyl)-1H-indol-2-yl)-3,4-dihydro-5-oxa-1,2a-diazaacenaphthylen-7-yl)methanone] | ≤ 1000 | 1000 to 10000 | –
N[C@@H]1CCCN(C(=O)c2cc3c4c(c2)nc(-c2cc5ccc(F)cc5n2CC2CC2)n4CCN3)C1 [Example 65, (R)-(3-aminopiperidin-1-yl)(2-(1-(cyclopropylmethyl)-6-fluoro-1H-indol-2-yl)-5,6-dihydro-4H-imidazo [1,5,4-de]quinoxalin-8-yl)methanone] | ≤ 1000 | ≤ 1000 | –
COc1cc2cc(-c3nc4cc(C(=O)N5CCC[C@@H](N)C5)cc5c4n3CCO5)n(CC3CC3)c2cc1OC [Example 17, (R)-(3-aminopiperidin-1-yl)(2-(1-(cyclopropylmethyl)-5,6-dimethoxy-1H-indol-2-yl)-3,4-dihydro-5-oxa-1,2a-diazaacenaphthylen-7-yl)methanone] | ≤ 1000 | 1000 to 10000 | –
